US9192613B1, “Treatment method for primary premature ejaculation” (Sapere IP, LLC, priority 2014, dated 2015)

How the values were obtained:
[1] = test system: men with premature ejaculation; settings: cited from earlier work
[2] = test system: patients with primary premature ejaculation; experiment: On-demand treatment of primary premature ejaculation: onset of action; assay type: in vivo, men; settings: intracavernosal injection, 5-20 mcg, 20 mcg/ml
Protocol: Side-effects are dose related and include dizziness, headache, nausea, blurred vision and dry mouth.
The doses start at lower doses such as 5 mcg=0.25 ml and progress to higher doses such as 10 mcg=0.5 ml and 20 mcg=1 ml, as needed, to achieve the desired effect.

[3] = test system: patients receiving intracavernous injection; settings: pooled publications; cited from earlier work

## CN(C)CCCN1c2ccccc2CCc2ccc(Cl)cc21 [Clomipramine]
[1]; oral administration
  Effect at delaying ejaculation: significant effect at delaying ejaculation
[1]; oral, on-demand use
  Time the drug needs to be taken before sexual relations: 3 to 4 h

## CCCCC[C@H](O)/C=C/[C@H]1[C@H](O)CC(=O)[C@@H]1CCCCCCC(=O)O [Alprostadil]
[2]
  Onset of Action: 5 to 10 min

## COc1ccc(Cc2nccc3cc(OC)c(OC)cc23)cc1OC [Papaverine]
[3]
  Fibrosis (%): 5.7%
  Liver Enzymes (%): 1.6%
  Pain (%): 4%
  Priapism (%): 7.1%
